In ChEMBL document CHEMBL3758139, “Novel thiol-based histone deacetylase inhibitors bearing 3-phenyl-1H-pyrazole-5-carboxamide scaffold as surface recognition motif: Design, synthesis and SAR study” (Bioorg Med Chem Lett, 2016):
pIC50: −log10 of the molar value.

Tests used:
Histone deacetylase 1 = Histone deacetylase 1 (Homo sapiens, UniProt Q13547); experiment: Inhibition of recombinant human HDAC1
[1] = biological target: T1, Protein deacetylase HDAC6 (Homo sapiens, UniProt Q9UBN7); experiment: Inhibition of recombinant human HDAC6
T1 sequence (Q9UBN7 whole entry): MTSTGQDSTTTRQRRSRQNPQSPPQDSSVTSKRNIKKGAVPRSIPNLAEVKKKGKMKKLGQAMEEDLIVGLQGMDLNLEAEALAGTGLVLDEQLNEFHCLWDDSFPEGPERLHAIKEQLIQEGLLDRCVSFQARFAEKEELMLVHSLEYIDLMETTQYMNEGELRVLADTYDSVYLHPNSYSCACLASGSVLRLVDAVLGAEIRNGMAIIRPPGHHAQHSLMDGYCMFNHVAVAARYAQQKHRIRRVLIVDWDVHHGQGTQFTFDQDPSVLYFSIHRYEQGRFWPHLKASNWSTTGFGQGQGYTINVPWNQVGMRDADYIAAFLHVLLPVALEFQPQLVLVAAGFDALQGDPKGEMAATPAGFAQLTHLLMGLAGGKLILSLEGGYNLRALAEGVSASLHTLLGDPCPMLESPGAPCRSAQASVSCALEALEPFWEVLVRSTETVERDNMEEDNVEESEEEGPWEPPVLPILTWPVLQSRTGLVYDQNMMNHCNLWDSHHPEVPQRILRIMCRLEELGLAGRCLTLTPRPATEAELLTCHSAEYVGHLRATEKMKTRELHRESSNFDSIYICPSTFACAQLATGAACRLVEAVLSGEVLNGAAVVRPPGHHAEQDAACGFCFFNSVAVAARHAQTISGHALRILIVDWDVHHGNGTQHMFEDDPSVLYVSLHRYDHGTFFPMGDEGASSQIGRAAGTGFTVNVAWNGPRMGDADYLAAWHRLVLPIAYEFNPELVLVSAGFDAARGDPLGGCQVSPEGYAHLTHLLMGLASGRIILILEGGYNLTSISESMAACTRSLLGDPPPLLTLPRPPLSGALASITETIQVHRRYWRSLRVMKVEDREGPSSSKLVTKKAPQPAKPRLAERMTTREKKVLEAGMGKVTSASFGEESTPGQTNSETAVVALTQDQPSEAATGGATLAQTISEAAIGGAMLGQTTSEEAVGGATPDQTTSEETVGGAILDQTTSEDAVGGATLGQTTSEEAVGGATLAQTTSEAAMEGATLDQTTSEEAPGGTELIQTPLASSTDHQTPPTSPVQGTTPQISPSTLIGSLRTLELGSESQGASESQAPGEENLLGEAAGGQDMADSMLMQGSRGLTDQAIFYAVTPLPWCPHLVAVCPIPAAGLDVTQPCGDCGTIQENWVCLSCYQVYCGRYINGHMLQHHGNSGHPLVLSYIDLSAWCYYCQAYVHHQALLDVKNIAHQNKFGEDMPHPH

[2] = Retention time of the compound; type: physicochemical
Histone deacetylase = experiment: Inhibition of HDAC in human HeLa nuclear extract; type: protein assay

Sequence of Histone deacetylase 1 (Q13547 whole entry): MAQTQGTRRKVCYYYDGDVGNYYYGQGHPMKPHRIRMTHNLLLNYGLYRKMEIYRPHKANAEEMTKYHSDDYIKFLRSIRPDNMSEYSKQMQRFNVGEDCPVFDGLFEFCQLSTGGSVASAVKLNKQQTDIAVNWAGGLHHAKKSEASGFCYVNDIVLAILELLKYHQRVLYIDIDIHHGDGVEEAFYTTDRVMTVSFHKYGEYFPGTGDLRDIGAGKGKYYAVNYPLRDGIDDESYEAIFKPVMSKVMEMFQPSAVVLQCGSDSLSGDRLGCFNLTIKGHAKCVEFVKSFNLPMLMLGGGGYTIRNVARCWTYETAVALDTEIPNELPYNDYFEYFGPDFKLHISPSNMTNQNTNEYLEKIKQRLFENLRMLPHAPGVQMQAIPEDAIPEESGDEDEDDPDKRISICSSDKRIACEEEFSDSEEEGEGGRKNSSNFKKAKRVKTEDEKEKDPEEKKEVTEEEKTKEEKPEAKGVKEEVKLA

| pIC50 (Histone deacetylase 1) | pIC50 [1] | Retention_time [2] | IC50 (Histone deacetylase) | SMILES |
| --- | --- | --- | --- | --- |
| < 5.00 | < 5.00 | 8.4 min | > 10 µM | CCC(C)n1nc(-c2ccc(F)cc2)cc1C(=O)NCCCCCCS (centres undefined) |
| 6.85 | – | – | – | C/C=C1\NC(=O)[C@H]2CSSCC/C=C/[C@H](CC(=O)N[C@H](C(C)C)C(=O)N2)OC(=O)[C@H](C(C)C)NC1=O [ROMIDEPSIN] |
| < 5.00 | 5.19 | 2.91 min | > 10 µM | O=C(NCCS)c1cc(-c2ccc(F)cc2)on1 |
| 5.85 | 6.06 | 3.25 min | 1.5 µM | O=C(CS)NCCCNC(=O)c1cc(-c2ccc(F)cc2)[nH]n1 |
| 6.19 | 6.68 | 2.99 min | 0.3 µM | O=C(O)CCn1nc(-c2ccc(F)cc2)cc1C(=O)NCCCCCCS |
| < 5.00 | < 5.00 | 5.49 min | > 10 µM | O=C(NCCCCCCS)c1cc(-c2ccc(F)cc2)n(Cc2ccccc2)n1 |
| < 5.00 | 5.31 | 4.24 min | > 10 µM | O=C(NCCCCS)c1cc(-c2ccc(F)cc2)on1 |
| 6.89 | 7.05 | 13.54 min | 0.08 µM | O=C(O)CCCn1nc(-c2ccc(F)cc2)cc1C(=O)NCCCCCCS |
| 5.74 | 6.35 | 6.9 min | 0.81 µM | O=C(O)CCCn1nc(C(=O)NCCCCCCS)cc1-c1ccc(F)cc1 |
| < 5.00 | < 5.00 | 4.93 min | > 10 µM | CC(C)n1nc(C(=O)NCCCCCCS)cc1-c1ccc(F)cc1 |
| 5.68 | 5.89 | 5 min | 3 µM | O=C(NCCCCCS)c1cc(-c2ccc(F)cc2)on1 |
| 6.48 | 6.04 | 2.86 min | 0.69 µM | O=C(NCCCCCCS)c1cc(-c2ccc(F)cc2)nn1CCO |
| < 5.00 | < 5.00 | 6.79 min | > 10 µM | CCCCn1nc(C(=O)NCCCCCCS)cc1-c1ccc(F)cc1 |
| 5.64 | 5.74 | 2.85 min | 2.2 µM | O=C(CS)NCCNC(=O)c1cc(-c2ccc(F)cc2)[nH]n1 |
| 5.72 | 6.60 | 7.77 min | 0.66 µM | O=C(O)Cn1nc(C(=O)NCCCCCCS)cc1-c1ccc(F)cc1 |
| < 5.00 | < 5.00 | 5.87 min | > 10 µM | CCC(C)n1nc(C(=O)NCCCCCCS)cc1-c1ccc(F)cc1 (centres undefined) |
| < 5.00 | 5.36 | 4.08 min | > 10 µM | Cc1c(-c2ccc(F)cc2)n[nH]c1C(=O)NCCCCCCS |
| < 5.00 | 5.68 | 2.94 min | 8.6 µM | O=C(CS)NCCCCNC(=O)c1cc(-c2ccc(F)cc2)[nH]n1 |
| < 5.00 | < 5.00 | 2.66 min | > 10 µM | O=C(CCS)NCCCNC(=O)c1cc(-c2ccc(F)cc2)[nH]n1 |
| 6.24 | 6.12 | 3.37 min | 0.69 µM | O=C(NCCCCCCS)c1cc(-c2ccc(F)cc2)n[nH]1 |
| < 5.00 | 5.13 | 7.17 min | > 10 µM | CC(C)n1nc(-c2ccc(F)cc2)cc1C(=O)NCCCCCCS |
| < 5.00 | < 5.00 | 11.92 min | > 10 µM | CCCCn1nc(-c2ccc(F)cc2)cc1C(=O)NCCCCCCS |

| pIC50 (Histone deacetylase 1) | pIC50 [1] | Retention_time [2] | IC50 (Histone deacetylase) | SMILES |
| --- | --- | --- | --- | --- |
| < 5.00 | < 5.00 | 4.77 min | > 10 µM | Cc1c(-c2ccc(F)cc2)nn(C)c1C(=O)NCCCCCCS |
| < 5.00 | 5.54 | 5.16 min | 3.2 µM | Cn1nc(-c2ccc(F)cc2)cc1C(=O)NCCCCCCS |
| < 5.00 | 5.24 | 3.37 min | > 10 µM | O=C(NCCCS)c1cc(-c2ccc(F)cc2)on1 |
| 6.60 | 6.85 | 3.66 min | 0.17 µM | O=C(NCCCCCCS)c1cc(-c2ccc(F)cc2)nn1CCCCO |
| < 5.00 | < 5.00 | 6.96 min | > 10 µM | CCCn1nc(-c2ccc(F)cc2)cc1C(=O)NCCCCCCS |
| 6.36 | 6.66 | 3.15 min | 0.54 µM | O=C(NCCCCCCS)c1cc(-c2ccc(F)cc2)n(CCCCO)n1 |
| 5.57 | 6.48 | 2.88 min | 0.4 µM | O=C(O)CCn1nc(C(=O)NCCCCCCS)cc1-c1ccc(F)cc1 |
| 6.07 | 6.06 | 5.67 min | 0.98 µM | O=C(NCCCCCCS)c1cc(-c2ccc(F)cc2)on1 |
| < 5.00 | 5.16 | 3.86 min | > 10 µM | Cn1nc(C(=O)NCCCCCCS)cc1-c1ccc(F)cc1 |
| 5.89 | 6.33 | 3.81 min | 1.2 µM | O=C(NCCCCCCS)c1cc(-c2ccc(F)cc2)nn1CCCO |
| 5.44 | 6.07 | 3.19 min | 3.1 µM | O=C(NCCCCCCS)c1cc(-c2ccc(F)cc2)n(CCCO)n1 |
| < 5.00 | < 5.00 | 5.2 min | > 10 µM | CCCn1nc(C(=O)NCCCCCCS)cc1-c1ccc(F)cc1 |
| < 5.00 | 5.30 | 5.79 min | > 10 µM | CCn1nc(-c2ccc(F)cc2)cc1C(=O)NCCCCCCS |
| < 5.00 | 5.30 | 3.71 min | > 10 µM | Cc1c(-c2ccc(F)cc2)nn(CCCO)c1C(=O)NCCCCCCS |
| 5.66 | 5.96 | 2.85 min | 1.9 µM | O=C(NCCCCCS)c1cc(-c2ccc(F)cc2)[nH]n1 |
| < 5.00 | < 5.00 | 7.52 min | > 10 µM | O=C(NCCCCCCS)c1cc(-c2ccc(F)cc2)nn1Cc1ccccc1 |
| < 5.00 | < 5.00 | 4.29 min | > 10 µM | CCn1nc(C(=O)NCCCCCCS)cc1-c1ccc(F)cc1 |
| 5.48 | 5.85 | 3.13 min | 2.1 µM | O=C(NCCCCCCS)c1cc(-c2ccc(F)cc2)n(CCO)n1 |
| < 5.00 | < 5.00 | 2.54 min | > 10 µM | O=C(CCS)NCCCCNC(=O)c1cc(-c2ccc(F)cc2)[nH]n1 |
| < 5.00 | < 5.00 | 2.74 min | > 10 µM | O=C(CCS)NCCNC(=O)c1cc(-c2ccc(F)cc2)[nH]n1 |
| 6.66 | 7.40 | 3.77 min | 0.16 µM | O=C(O)Cn1nc(-c2ccc(F)cc2)cc1C(=O)NCCCCCCS |
